One block for each compound: values may come before it.
Tests used:
[1] = biological target: T1, Serine/threonine-protein kinase D2 (Homo sapiens) (UniProt Q9BZL6); assay: Selectivity interaction (Millipore kinase profiler) EUB0000124b PRKD2; conditions: at 10 µM
T1 sequence (whole entry): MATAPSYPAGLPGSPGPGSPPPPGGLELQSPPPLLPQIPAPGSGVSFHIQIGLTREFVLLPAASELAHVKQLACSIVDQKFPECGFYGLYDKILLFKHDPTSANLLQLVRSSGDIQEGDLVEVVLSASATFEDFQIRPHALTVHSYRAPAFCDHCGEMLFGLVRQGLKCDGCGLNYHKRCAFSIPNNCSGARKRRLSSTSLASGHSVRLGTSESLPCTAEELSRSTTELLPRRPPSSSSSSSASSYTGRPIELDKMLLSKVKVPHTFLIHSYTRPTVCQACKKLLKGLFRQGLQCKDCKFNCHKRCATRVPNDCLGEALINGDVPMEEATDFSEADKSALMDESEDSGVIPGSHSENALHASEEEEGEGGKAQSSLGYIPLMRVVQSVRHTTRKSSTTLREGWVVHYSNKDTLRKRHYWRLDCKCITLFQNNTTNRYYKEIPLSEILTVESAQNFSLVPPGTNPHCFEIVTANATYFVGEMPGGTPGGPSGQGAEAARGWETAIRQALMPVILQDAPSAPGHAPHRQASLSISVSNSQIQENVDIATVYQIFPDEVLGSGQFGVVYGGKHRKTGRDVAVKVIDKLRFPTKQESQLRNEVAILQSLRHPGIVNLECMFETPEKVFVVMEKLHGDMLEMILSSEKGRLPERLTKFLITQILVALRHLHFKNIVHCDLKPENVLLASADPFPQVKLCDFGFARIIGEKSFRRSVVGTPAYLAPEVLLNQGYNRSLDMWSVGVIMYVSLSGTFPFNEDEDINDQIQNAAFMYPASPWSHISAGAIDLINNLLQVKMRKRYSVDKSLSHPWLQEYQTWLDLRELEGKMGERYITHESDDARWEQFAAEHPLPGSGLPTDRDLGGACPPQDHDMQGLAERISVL

[2] = biological target: T2, Cyclin-G-associated kinase (Homo sapiens) (UniProt O14976); assay: Selectivity interaction (LanthaScreen Eu Kinase Binding Assay) EUB0001632a GAK; conditions: at 10 µM
T2 sequence (whole entry): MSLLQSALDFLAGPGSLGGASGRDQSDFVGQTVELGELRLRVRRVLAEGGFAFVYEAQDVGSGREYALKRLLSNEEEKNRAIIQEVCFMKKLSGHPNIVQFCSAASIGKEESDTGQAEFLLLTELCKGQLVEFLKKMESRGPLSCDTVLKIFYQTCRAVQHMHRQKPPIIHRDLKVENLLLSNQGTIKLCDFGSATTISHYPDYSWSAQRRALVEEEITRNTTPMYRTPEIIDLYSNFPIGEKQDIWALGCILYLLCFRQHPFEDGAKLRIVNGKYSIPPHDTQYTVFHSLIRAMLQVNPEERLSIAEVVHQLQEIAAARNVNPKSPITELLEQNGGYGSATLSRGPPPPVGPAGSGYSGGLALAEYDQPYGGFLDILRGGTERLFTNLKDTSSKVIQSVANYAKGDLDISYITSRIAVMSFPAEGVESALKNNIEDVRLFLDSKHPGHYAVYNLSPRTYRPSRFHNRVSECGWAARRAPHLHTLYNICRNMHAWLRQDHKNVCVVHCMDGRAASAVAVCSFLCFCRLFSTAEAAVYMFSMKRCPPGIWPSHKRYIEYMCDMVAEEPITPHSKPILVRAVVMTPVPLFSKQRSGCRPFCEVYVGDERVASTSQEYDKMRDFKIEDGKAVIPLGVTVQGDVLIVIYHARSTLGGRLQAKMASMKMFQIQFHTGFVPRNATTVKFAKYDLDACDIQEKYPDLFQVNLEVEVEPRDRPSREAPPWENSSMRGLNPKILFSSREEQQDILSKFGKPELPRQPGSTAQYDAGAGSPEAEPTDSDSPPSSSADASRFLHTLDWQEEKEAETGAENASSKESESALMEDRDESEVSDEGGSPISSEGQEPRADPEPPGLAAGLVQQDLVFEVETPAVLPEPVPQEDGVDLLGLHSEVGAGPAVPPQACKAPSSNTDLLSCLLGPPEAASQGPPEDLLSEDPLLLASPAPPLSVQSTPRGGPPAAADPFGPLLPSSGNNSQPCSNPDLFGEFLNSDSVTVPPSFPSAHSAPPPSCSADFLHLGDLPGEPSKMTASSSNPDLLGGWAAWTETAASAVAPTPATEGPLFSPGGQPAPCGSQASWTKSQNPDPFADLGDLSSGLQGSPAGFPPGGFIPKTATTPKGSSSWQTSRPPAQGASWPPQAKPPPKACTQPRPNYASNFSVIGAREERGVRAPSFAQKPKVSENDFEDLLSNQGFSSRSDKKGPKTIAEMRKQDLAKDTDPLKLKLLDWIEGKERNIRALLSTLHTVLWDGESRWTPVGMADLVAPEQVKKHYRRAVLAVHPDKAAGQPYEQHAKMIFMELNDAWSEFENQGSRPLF

[3] = tested on: Fibroblast growth factor receptor 3 (Homo sapiens), P22607 [K650E]; assay: (§1) Selectivity interaction (Kinase panel (Z-LYTE Assay)) EUB0001632a FGFR3; conditions: at 10 µM
[4] = biological target: Fibroblast growth factor receptor 3 (Homo sapiens, UniProt P22607); assay: as §1; conditions: at 10 µM
[5] = biological target: Serine/threonine-protein kinase SIK1 (Homo sapiens) (UniProt P57059); assay: Selectivity interaction (KinomeScan (DiscoverX)) EUB0000229b SIK1; conditions: at 10 µM
[6] = biological target: Protein kinase C beta type (Homo sapiens, UniProt P05771); assay: Selectivity interaction (ProQinase) EUB0000171b PRKCB
[7] = biological target: Activin receptor type-2B (Homo sapiens) (UniProt Q13705); assay: Selectivity interaction (KinomeScan (DiscoverX)) EUB0000655a ACVR2B; conditions: at 10 µM
[8] = biological target: Insulin receptor (Homo sapiens, UniProt P06213); assay: Selectivity interaction (KinomeScan (DiscoverX)) EUB0000666a INSR; conditions: at 10 µM
Insulin receptor, sequence (P06213 28-758 limits assumed): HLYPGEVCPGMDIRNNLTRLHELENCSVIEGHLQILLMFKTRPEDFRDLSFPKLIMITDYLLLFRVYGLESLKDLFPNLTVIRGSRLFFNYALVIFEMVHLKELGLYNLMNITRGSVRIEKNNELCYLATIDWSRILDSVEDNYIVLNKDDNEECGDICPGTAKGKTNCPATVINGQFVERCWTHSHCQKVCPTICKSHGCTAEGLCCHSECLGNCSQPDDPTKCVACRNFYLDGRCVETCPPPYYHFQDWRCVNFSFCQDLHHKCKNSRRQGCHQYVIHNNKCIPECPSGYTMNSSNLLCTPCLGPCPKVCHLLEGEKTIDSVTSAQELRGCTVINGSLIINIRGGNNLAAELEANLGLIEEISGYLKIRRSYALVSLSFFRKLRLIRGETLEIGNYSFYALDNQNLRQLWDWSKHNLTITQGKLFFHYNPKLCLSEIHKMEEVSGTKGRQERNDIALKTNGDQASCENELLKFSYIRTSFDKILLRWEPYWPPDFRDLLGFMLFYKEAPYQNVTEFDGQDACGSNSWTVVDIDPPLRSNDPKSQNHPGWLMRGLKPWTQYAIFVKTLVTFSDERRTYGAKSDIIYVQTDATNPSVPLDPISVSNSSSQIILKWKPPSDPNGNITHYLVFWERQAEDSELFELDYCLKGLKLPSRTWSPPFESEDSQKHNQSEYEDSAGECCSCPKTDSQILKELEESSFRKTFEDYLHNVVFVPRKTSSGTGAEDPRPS
Insulin receptor, sequence (P06213 763-1382 limits assumed): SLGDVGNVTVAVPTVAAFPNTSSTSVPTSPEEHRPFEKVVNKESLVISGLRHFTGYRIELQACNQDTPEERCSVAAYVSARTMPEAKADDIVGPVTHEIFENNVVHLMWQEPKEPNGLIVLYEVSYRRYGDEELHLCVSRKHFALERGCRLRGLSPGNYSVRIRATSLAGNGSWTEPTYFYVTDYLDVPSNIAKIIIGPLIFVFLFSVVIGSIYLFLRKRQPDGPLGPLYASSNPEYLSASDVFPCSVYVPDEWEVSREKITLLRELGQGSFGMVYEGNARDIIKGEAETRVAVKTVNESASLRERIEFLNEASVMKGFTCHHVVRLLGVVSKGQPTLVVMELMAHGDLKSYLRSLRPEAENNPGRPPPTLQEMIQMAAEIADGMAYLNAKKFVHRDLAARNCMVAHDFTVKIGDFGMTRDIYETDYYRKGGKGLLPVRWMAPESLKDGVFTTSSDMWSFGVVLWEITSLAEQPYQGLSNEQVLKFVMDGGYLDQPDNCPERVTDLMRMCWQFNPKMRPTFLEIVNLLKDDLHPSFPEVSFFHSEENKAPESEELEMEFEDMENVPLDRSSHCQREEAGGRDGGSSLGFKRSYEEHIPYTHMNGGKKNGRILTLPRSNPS

Protein kinase C beta type, sequence (P05771 2-671 limits assumed): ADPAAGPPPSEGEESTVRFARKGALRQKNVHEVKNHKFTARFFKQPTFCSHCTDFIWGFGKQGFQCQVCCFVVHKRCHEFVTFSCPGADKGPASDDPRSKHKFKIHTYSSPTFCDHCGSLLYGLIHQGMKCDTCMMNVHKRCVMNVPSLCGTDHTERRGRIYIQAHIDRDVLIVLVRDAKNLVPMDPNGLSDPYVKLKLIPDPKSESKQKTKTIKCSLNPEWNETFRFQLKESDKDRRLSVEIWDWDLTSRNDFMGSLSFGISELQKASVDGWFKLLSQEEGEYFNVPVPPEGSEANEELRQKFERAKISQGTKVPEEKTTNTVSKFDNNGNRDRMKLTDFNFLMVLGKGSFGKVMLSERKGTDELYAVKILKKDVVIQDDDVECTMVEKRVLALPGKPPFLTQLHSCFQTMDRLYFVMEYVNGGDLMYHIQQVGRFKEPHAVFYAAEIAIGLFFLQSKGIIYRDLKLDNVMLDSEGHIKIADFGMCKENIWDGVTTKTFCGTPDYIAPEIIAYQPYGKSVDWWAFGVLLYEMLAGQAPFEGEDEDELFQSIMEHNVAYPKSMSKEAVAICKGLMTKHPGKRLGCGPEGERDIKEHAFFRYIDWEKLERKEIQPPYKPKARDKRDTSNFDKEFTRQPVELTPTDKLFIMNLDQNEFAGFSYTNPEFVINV
Fibroblast growth factor receptor 3 (Homo sapiens), P22607 [K650E], sequence (P22607 whole entry K650E): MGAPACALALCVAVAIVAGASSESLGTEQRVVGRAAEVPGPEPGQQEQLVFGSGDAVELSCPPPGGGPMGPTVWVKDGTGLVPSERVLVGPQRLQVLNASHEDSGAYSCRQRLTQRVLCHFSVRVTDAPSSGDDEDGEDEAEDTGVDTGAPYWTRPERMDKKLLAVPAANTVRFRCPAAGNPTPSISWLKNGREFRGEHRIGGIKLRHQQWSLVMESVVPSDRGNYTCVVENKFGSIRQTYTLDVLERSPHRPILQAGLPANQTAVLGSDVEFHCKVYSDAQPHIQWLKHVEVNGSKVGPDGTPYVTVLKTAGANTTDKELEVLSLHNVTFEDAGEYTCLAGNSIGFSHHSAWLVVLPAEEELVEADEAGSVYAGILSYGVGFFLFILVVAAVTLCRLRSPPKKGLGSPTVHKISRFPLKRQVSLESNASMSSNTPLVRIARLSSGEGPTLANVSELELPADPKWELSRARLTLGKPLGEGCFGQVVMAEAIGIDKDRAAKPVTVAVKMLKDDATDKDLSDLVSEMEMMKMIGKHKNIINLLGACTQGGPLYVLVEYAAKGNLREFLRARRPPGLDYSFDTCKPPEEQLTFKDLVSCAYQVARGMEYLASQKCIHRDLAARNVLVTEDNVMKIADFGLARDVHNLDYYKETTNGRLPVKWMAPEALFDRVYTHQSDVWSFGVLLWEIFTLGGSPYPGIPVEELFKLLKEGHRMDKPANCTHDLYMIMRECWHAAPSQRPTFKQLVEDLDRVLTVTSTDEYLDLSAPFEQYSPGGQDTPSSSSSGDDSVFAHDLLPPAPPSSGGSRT
Fibroblast growth factor receptor 3, sequence (P22607 23-806 limits assumed): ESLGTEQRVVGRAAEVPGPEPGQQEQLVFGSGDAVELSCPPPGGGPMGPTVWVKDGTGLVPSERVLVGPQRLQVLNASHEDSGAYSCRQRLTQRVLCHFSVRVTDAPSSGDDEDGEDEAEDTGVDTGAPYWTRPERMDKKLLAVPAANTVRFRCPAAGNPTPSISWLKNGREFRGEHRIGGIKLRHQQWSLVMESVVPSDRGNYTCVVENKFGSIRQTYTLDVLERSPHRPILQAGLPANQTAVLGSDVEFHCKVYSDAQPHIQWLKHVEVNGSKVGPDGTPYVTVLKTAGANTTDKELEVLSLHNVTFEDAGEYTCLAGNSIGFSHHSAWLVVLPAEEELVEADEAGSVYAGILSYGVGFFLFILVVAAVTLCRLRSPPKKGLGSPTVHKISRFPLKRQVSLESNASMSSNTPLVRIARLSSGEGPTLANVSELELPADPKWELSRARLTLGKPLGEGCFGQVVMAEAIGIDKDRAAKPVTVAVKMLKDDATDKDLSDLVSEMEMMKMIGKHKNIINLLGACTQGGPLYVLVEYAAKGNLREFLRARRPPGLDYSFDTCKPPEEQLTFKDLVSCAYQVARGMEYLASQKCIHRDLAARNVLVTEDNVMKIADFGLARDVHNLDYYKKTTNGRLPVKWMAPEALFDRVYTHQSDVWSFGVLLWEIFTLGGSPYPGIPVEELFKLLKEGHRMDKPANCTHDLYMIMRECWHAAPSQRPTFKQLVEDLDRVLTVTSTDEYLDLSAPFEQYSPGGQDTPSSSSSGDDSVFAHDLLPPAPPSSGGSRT
Activin receptor type-2B (Homo sapiens), sequence (Q13705 whole entry): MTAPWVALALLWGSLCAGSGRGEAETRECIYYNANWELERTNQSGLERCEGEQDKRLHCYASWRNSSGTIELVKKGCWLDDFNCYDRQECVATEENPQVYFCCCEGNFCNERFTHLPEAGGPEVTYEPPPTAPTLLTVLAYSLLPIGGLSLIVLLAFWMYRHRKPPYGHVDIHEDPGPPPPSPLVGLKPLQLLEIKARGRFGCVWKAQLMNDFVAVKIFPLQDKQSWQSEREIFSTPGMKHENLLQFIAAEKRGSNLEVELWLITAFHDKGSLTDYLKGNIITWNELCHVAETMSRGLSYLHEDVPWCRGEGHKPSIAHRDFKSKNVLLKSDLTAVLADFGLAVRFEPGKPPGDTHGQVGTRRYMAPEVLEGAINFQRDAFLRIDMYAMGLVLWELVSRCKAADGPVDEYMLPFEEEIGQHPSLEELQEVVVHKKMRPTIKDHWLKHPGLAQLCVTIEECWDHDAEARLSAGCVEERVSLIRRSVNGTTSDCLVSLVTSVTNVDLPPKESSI
Serine/threonine-protein kinase SIK1 (Homo sapiens), sequence (P57059 whole entry): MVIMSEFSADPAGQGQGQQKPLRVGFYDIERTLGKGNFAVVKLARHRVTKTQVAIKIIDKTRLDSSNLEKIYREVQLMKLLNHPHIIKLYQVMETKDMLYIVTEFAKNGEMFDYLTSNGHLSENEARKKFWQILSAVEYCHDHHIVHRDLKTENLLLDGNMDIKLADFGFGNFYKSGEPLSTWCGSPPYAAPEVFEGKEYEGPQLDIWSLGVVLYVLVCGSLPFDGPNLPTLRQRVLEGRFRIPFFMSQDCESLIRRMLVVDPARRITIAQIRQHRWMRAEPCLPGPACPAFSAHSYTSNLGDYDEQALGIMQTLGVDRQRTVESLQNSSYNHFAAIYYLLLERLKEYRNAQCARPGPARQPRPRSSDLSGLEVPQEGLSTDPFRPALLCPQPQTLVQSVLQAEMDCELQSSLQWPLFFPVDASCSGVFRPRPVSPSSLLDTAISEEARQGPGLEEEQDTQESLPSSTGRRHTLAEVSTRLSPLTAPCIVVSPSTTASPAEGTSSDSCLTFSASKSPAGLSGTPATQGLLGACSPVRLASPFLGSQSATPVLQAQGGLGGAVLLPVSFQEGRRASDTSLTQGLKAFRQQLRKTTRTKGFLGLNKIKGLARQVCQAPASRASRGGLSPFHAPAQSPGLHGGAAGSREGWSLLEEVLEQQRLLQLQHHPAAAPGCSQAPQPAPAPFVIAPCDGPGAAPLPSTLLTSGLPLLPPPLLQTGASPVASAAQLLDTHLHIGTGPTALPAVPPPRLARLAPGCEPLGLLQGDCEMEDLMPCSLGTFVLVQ

SMILES: Cn1cc(-n2cnc3c(NCc4nc5cc(Cl)c(Cl)cc5[nH]4)nc(N4CCOCC4)nc32)cn1
- % of inhibition [2]: -16.7%
- % of control [3]: 19.3%
- % of control [4]: 4.08%

SMILES: COc1cc(N(C)c2ccnc3ccc(C(F)(F)F)cc23)cc(OC)c1OC
- % binding [5]: 96%

SMILES: CN(C)CCOc1ccc(-c2nc(-c3ccncc3)c(-c3ccc4c(c3)CC/C4=N\O)[nH]2)cc1
- % of control [7]: 98%

SMILES: O=C(NOC[C@H](O)CO)c1ccc(F)c(F)c1Nc1ccc(I)cc1F
- % of control [8]: 92%

Next, values leading:

- % of control [1]: 98%
SMILES: CC(=O)Nc1cccc(-n2c(=O)n(C3CC3)c(=O)c3c(Nc4ccc(I)cc4F)n(C)c(=O)c(C)c32)c1

- % of control ([6]; at 1 µM): 111%
- % of control ([6]; at 5 µM): 106%
SMILES: C=CC(=O)Nc1cccc(C(=O)Nc2ccc(Nc3cc(-c4[nH]c(SC)nc4C)ccn3)cc2)c1
